Tests used:
C2C12 muscle myotubes = assay: Muscle protein synthesis in C2C12 myotubes under TNF-α stress (radiolabeled phenylalanine incorporation); format: cell-based, mouse; conditions: for protein synthesis as compared to the control: synthesis measured over following 4 hours
Experimental: The role of EGCg, in the form of […]® brand green tea extract that contains about 95% EGCg (available from DSM of the Netherlands), in stimulating muscle protein synthesis was evaluated in an in vitro cell-based assay using mouse C2C12 muscle myotubes. This assay measured the incorporation of radiolabeled phenylalanine into myotubes in response to various stimuli. C2C12 myoblasts passaged in FCS DMEM (Fetal Calf Serum Dulbecco's Modified Eagle's Medium) were differentiated to myotubes in HS DMEM (Horse Serum Dulbecco's Modified Eagle's Medium). The myotubes were labeled for 24 hours with L-[2,6-3H] phenylalanine prior to compound experimentation. They were then incubated with TNF-α (50 ng/ml) for 2 hours in the absence, or presence of 10 μM or 50 μM of EGCg, and protein synthesis was measured over the following 4 hours.

mTOR = mTOR activation in skeletal muscle of aged rats, 8-week diet study; format: in vivo, Sprague Dawley rats; conditions: 200 mg/kg body weight EGCg per day in AIN-93M diet, 8 weeks, rats aged 20 months; p<0.05
Experimental: (§1) Each of 12 aged Sprague Dawley rats (SD) rats (20 months) were chronically fed the following diets ad libitum for 8 weeks to evaluate the effects on the progression of sarcopenia in the rats:
(§2) Control diet: AIN-93M (AIN-93M diets are well known balanced diets for rodents); and
(§3) Test diet: AIN-93M+200 mg/kg body weight of EGCg.
(§4) The AIN-93M diet was supplemented with EGCG (in the form of TEAVIGO® brand green tea extract) at a concentration of 5 gm/kg diet to deliver a dose of 200 mg/kg body weight of EGCg per day to the SD rat (approximate body weight 500 gm, approximate food intake=20 gm/d) in the test diet.

gastrocnemius muscle = assay: Gastrocnemius muscle wet weight of aged rats, 8-week diet study; format: in vivo, Sprague Dawley rats; conditions: 200 mg/kg body weight EGCg per day in diet, 8 weeks, rats aged 20 months
Experimental: as §1, §2, §3, §4
(§5) This increased activation was associated with increases in gastrocnemius muscle wet weight and muscle fiber cross sectional area, as shown respectively in FIGS. 3 and 4. Excised gastrocnemius muscles were weighed at the end of the 8 weeks. […] With respect to the muscle fiber cross sectional area, 8-micron muscle sections from the SD rats were dissected, mounted, and stained using hematoxylin & eosin at the end of the 8 week period. Approximately 400 fibers were measured per sample. The results are shown in FIG. 4, in which the SD rats fed the test diet (EGCg treatment) have higher cross sectional areas as compared to that of the SD rats fed the control diet (p=0.06).

muscle fiber = assay: Muscle fiber cross sectional area of aged rats, 8-week diet study; format: in vivo, Sprague Dawley rats; conditions: 200 mg/kg body weight EGCg per day in diet, 8 weeks; p=0.06
Experimental: as §1, §2, §3, §4, §5

[1] = test system: 19S regulatory particle ubiquitin proteasome subunits; assay: Western blot of 19S regulatory particle ubiquitin proteasome subunits, 8-week diet study; format: in vivo, Sprague Dawley rats; conditions: 200 mg/kg body weight EGCg per day in diet, 8 weeks
Experimental: as §1, §2, §3, §4
(§6) Conversely, markers of muscle atrophy such as the 19S regulatory and 20S core particle ubiquitin proteasome subunits, MuRF1, and MAFbx were lower at the end of the 8 weeks in those SD rats fed the test diet (EGCg treatment) as compared to those fed the control diet. […] The components of the Ubiquitin Proteasome Pathway (UPP) as shown in FIGS. 5-8 were measured by western blotting in rats treated with either the test (EGCg treatment) or the control diets.

[2] = test system: 20S core particle ubiquitin proteasome subunits; assay: Western blot of 20S core particle ubiquitin proteasome subunits, 8-week diet study; format: in vivo, Sprague Dawley rats; conditions: 200 mg/kg body weight EGCg per day in diet, 8 weeks
Experimental: as §1, §2, §3, §4, §6

[3] = test system: muscle ring finger protein 1 (MuRF1); assay: Western blot of MuRF1, 8-week diet study; format: in vivo, Sprague Dawley rats; conditions: 200 mg/kg body weight EGCg per day in diet, 8 weeks
Experimental: as §1, §2, §3, §4, §6

[4] = test system: muscle atrophy f-box (MAFbx); assay: Western blot of MAFbx, 8-week diet study; format: in vivo, Sprague Dawley rats; conditions: 200 mg/kg body weight EGCg per day in diet, 8 weeks
Experimental: as §1, §2, §3, §4, §6

Compound	protein synthesis as compared to the control (C2C12 muscle myotubes; 10 μM EGCg plus TNF-α (50 ng/ml, 2 hours), p<0.05) [%]	protein synthesis as compared to the control (C2C12 muscle myotubes; 50 μM EGCg plus TNF-α (50 ng/ml, 2 hours), p<0.01) [%]	increase in intramuscular phosphorylated mTOR expression (mTOR activation) vs control diet (mTOR) [%]	greater muscle mass in excised gastrocnemius muscle vs control diet (gastrocnemius muscle)	muscle fiber cross sectional area vs control diet (muscle fiber)	19S regulatory particle ubiquitin proteasome subunit expression vs control diet [1]	20S core particle ubiquitin proteasome subunit expression vs control diet [2]	MuRF1 expression vs control diet [3]	MAFbx expression vs control diet [4]	drop in protein synthesis as compared to the control (C2C12 muscle myotubes; TNF-α alone, 50 ng/ml, 2 hours, p<0.05) [%]
O=C(O[C@@H]1Cc2c(O)cc(O)cc2O[C@@H]1c1cc(O)c(O)c(O)c1)c1cc(O)c(O)c(O)c1 [EGCg, epigallocatechin gallate]	104	109	53	approximately 5%	higher	lower	lower	lower	lower	
tumor necrosis factor alpha [TNFα, reference compound]										16
